Test results from US8633186B2, “Modulation of chemosensory receptors and ligands associated therewith” (Senomyx Inc., priority 2007, dated 2014).

Tests used:
[1] = test system: human panelists (which sample is sweeter); assay: Sweet flavor and sweet flavor enhancement, human panelists, paired comparison test; format: in vivo
Protocol: Test samples containing experimental compounds are presented in pairs to the panelist and they are asked to determine which of the sample is sweeter. A group of 10-16 or more panelists participated in each test. Subjects refrained from eating or drinking (except water) for at least 1 hour prior to the test. Subjects rinsed with water several times to clean the mouth.
All samples are prepared with ethanol to ensure dispersion of the compound in solution. This includes samples without compound; all solutions are balanced for 0.1% ethanol.
Samples are also prepared with low sodium buffer (pH 7.1) in place of water. Buffer contains 0.952 g of KCl, 5.444 g of Na2HPO4, and 0.952 g of KH2PO4 in 40 L of DIUF water. Sample volumes are usually 20 ml.
In one paired comparison test, the panelist is presented with two different samples and asked to identify the sample which is sweeter. The samples within a paired comparison test are presented in a randomized, counterbalanced order. Panelists have up to a 1 minute delay between taste tests to clear the mouth of any tastes.
Binomial probability tables are used to determine the probability of the correct number of responses occurring for each test at alpha=0.05.

[2] = test system: human panelists (perceived sweetness intensity); assay: Sweet flavor and sweet flavor enhancement, human panelists, scaling test; format: in vivo; details: for Average sweetness score (line scale 0 to 15): Table 29; for Average Sweetness: Table 36, n = 13
Text: Test samples containing experimental compounds were compared to a dose-response curve for perceived sweetness intensity of sweeteners (such as, for example, sucralose, sucrose, fructose and other sweeteners) concentrations to determine equivalent sweetness intensity.
A group of eight or more panelists tasted solutions including sweeteners at various concentrations, as well as the experimental compound both with and without added sweetener. Panelists then rated sweetness intensity of all samples on a structured horizontal line scale, anchored from 0 to 15, where 0 equals no sweetness and 15 equals equivalent sweetness to a 15% sucrose sample. Scores for sweetness intensity were averaged across panelists. Then using the average scores and/or equation of the line for the sweetener dose-response curve, equivalent sweetness concentrations were determined for the samples containing experimental compounds.
Subjects had been previously familiarized with the key attribute taste and were trained to use the 0 to 15 point line scale. Subjects refrained from eating or drinking (except water) for at least 1 hour prior to the test. Subjects ate a cracker and rinsed with water several times to clean the mouth.
Sweetener solutions are provided at a wide range of concentrations such as 100 ppm, 200 ppm, 300 ppm, 400 ppm, and 500 ppm for sucralose, or between 0% and 12% for sucrose or fructose, in order to create a dose-response curve. Samples containing experimental compound were prepared both alone and in a 100 ppm sucralose solution or a 6% sucrose or fructose solution. All samples were made up in low sodium buffer pH 7.1. In order to aid dispersion, solutions can be made up in 0.1% ethanol.
The solutions were dispensed in 20 ml volumes into 1 oz. sample cups and served to the subjects at room temperature. All samples were presented in randomized counterbalanced order to reduce response bias. Further, two sessions of testing may be used to check panel precision.
Subjects tasted each sample individually and rate sweetness intensity on the line scale prior to tasting the next sample. All samples were expectorated. Subjects may retaste the samples but can only use the volume of sample given. Subjects must rinse with water between samples. Eating an unsalted cracker between samples may be required depending on the samples tasted.
The scores for each sample were averaged across subjects and standard error was calculated. The dose-response curve was plotted graphically, and this may be used to ensure the panel is rating accurately; i.e., increasing the concentration of sucralose should correspond to increased average scores for sweetness. A 2-way ANOVA (factors being samples and panelists) and multiple comparison tests (such as Tukey's Honestly Significant Difference test) can be used to determine differences among samples and/or panelists. A 3-way ANOVA, with sessions as the third factor, can be used to determine if there is any difference in the ratings between sessions.

[3] = Table 35, 6% Fructose alone vs 6% Fructose + 100 μM C20, of n = 19

Compound | melting point [°C] | other results
CCCOc1cccc2c1C(N)=NS(=O)(=O)N2 [Example 111, 4-Amino-5-(propyloxy)-1H-benzo[c][1,2,6]thiadiazine-2,2-dioxide] | 229 to 230 | 
COC(=O)c1c(N)c2ccccc2[nH]c1=O [Example 68, Methyl 4-amino-2-oxo-1,2-dihydroquinoline-3-carboxylate] | 236 | 
Nc1nc(=O)[nH]c2sc3c(c12)CCOC3 [Compound 568] |  | Sample selected as more sweet by panelists, Total ([1]; Table 33, 6% Fructose + 100 μM compound vs 6% Fructose, of n = 26 (13 panelists × 2 reps)): 20
Cc1cccc2[nH]c(=S)nc(N)c12 [Example 3, 4-Amino-5-methylquinazoline-2(1H)-thione] | > 250 | 
O=C(CO)[C@@H](O)[C@H](O)[C@H](O)CO [Fructose, fructose] |  | Average sweetness score (line scale 0 to 15) ([2]; 6% fructose alone): 6.9; Average sweetness score (line scale 0 to 15) ([2]; 8% fructose alone): 8.6; Average sweetness score (line scale 0 to 15) ([2]; 9% fructose alone): 9.3; Average sweetness score (line scale 0 to 15) ([2]; 10% fructose alone): 9.5; Average Sweetness ([2]; 2% Fructose alone): 2.3; Average Sweetness ([2]; 4% Fructose alone): 4.2; Average Sweetness ([2]; 6% Fructose alone): 5.9; Sample selected as more sweet by panelists, Total ([1]; Table 33, 6% Fructose alone vs 6% Fructose + 100 μM compound, of n = 26): 6; Sample selected as more sweet by panelists, Total ([1]; Table 34, 6% Fructose alone vs 6% Fructose + 100 μM C19, of n = 24): 6; Sample selected as more sweet by panelists, Test 1 [1, 3]: 0; Sample selected as more sweet by panelists, Total [1, 3]: 0; Sample selected as more sweet by panelists, Test 1 ([1]; Table 37, 6% Fructose alone vs 6% fructose + 25 μM C21, of n = 25): 5; Sample selected as more sweet by panelists, Test 1 ([1]; Table 38, 7% Fructose alone vs 6% fructose + 25 μM C21, of n = 25): 13
C/C=C/c1cccc2c1C(N)=NS(=O)(=O)N2 [Example 130, 4-Amino-5-((E)-prop-1-enyl)-1H-benzo[c][1,2,3]thiadiazine-2,2-dioxide] | > 260 | 
CC(C)=Cc1c(F)ccc2c1C(N)=NS(=O)(=O)N2 [Example 134, 4-Amino-6-fluoro-5-(2-methylprop-1-enyl)-1H-benzo[c][1,2,3]thiadiazine-2,2-dioxide] | > 250 | 
Nc1c(C(=O)O)c(=O)[nH]c2ccccc12 [Example 66, 4-Amino-2-oxo-1,2-dihydroquinoline-3-carboxylic acid] | > 250 | 
Cc1sc2[nH]c(=S)nc(N)c2c1C [Example 1, 4-Amino-5,6-dimethylthieno[2,3-d]pyrimidine-2(1H)-thione] | > 260 | 
NC1=NS(=O)(=O)Nc2cccc(OCC3CC3)c21 [Example 186, (S)-4-Amino-5-(cyclopropylmethoxy)-1H-benzo[c][1,2,6]thiadiazine-2,2-dioxide] | 246 to 247 | 
CC(C)=Cc1cccc2c1C(N)=NS(=O)(=O)N2 [Example 129, 4-Amino-5-(2-methylprop-1-enyl)-1H-benzo[c][1,2,3]thiadiazine-2,2-dioxide] | > 260 | 
Cc1sc2[nH]c(=O)nc(N)c2c1C.Cl | > 260 | 
Nc1cc(=O)[nH]c2ccccc12 [Example 65, 4-Aminoquinolin-2(1H)-one] | > 250 | 
O=C(NC1CCCCC1)c1c(O)c2ccccc2[nH]c1=O [Example 73, N-cyclohexyl-4-hydroxy-2-oxo-1,2-dihydroquinoline-3-carboxamide] | 221 | 
NC1=NS(=O)(=O)Nc2cccc(OC3CCCCC3)c21 [Example 168, 4-Amino-5-(cyclohexyloxy)-1H-benzo[c][1,2,6]thiadiazine-2,2-dioxide] | 215 to 216 | 
N#Cc1c(N)c2ccccc2[nH]c1=O [Example 71, 4-Amino-2-oxo-1,2-dihydroquinoline-3-carbonitrile] | > 250 | 
N#Cc1c(Cl)c2ccccc2[nH]c1=O [Example 72, 4-chloro-2-oxo-1,2-dihydroquinoline-3-carbonitrile] | > 250 | 
